In patent US8198446B2, “Crystalline micropowder particles” (Toray Industries, Inc., priority 2007, dated 2012):

What was measured:
[1] = Measurement of particle diameter distribution (laser diffraction, dry measurement, Mastersizer 2000); format: physicochemical; settings: for Particle Diameter Distribution D50 / Particle Diameter Distribution D90: dry measurement, volume basis
Method: In the present invention, D50 and D90 are indices for defining particle diameter distribution. Particle diameter distribution is usually called particle size distribution. Particles are divided into groups along with their size with appropriate intervals, and weight (volume) or particle number of the particles belonging to each group is measured to obtain the particle number (frequency) of each group. Taking the particle number (frequency) along the ordinate and taking the particle diameter along the abscissa, a particle diameter distribution is shown as a histogram, frequency curve, cumulative curve or the like. In the present invention, frequency was calculated based on volume. In the particle diameter distribution obtained in such a manner, D50 means the particle diameter at the point where the volume which is cumulatively measured from smaller particles reaches 50%, that is, the point where the cumulative frequency of the volume distribution reaches 50%. D90 means the particle diameter at the point where the volume which is cumulatively measured from smaller particles reaches 90%, that is, the point where the cumulative frequency of the volume distribution reaches 90%. Cumulative frequency (%) of particles which have a smaller diameter than a specified particle diameter can also be calculated from such a distribution chart.
Measurement of the particle diameter distribution of the crystalline finely-ground particles according to the present invention may be carried out with a commercially available apparatus using laser diffraction/scattering based on Mie Theory. For example, the measurement is carried out using a commercially available apparatus such as Malvern (registered trademark) Mastersizer Laser Diffraction Analyzer (Malvern Instruments Ltd). This analyzer irradiates He—Ne laser beam and blue light-emitting diode on particles to obtain a light scattering pattern which occurs on a detector by the irradiation, and then analyzes the light scattering pattern according to Mie Theory to determine the particle diameter distribution. […] An example of the measurement condition is as follows, which was used in Evaluation 1 of the present invention.
• Apparatus: Laser diffraction-based particle size distribution analyzer Mastersizer 2000 (Malvern) • Dry measurement unit: Scircco 2000 • Refractive Index of Samples: Real part; 1.810, Imaginary part; 0 • Time for Sample Measurement: 1 second • Time for Background Measurement: 5 seconds • Pressure: 2.0 bar • Feed Rate: 40% • Analysis Model: Single narrow mode • Calculation Sensitivity Enhanced • Particle Shape Irregular • Analysis Range: 0.020 to 2000 μm • Basis of Size Distribution Measurement: Volume
The particle diameter distribution of the subject compound was measured by dry measurement using a particle size distribution analyzer (Mastersizer 2000, manufactured by Malvern). D50 and D90 were calculated as an index of the particle diameter distribution.

[2] = Check of crystalline state and measurement of degree of crystallinity by powder X-ray diffraction; format: physicochemical; settings: powder X-ray diffraction, Xc=(Sc/(Sc+Sa))×100
Method: The degree of crystallinity of the crystalline finely-ground particles according to the present invention is calculated from the integrated intensity ratio of crystalline peaks and amorphous halo which are extracted from an X-ray diffraction pattern obtained by powder X-ray diffraction measurement.
The powder X-ray diffraction measurement may be carried out by using, for example, a powder X-ray diffractometer (2200/RINT Ultima+PC) manufactured by Rigaku as described in Evaluation 2 of the present invention. In preparation of a measurement sample, 100 mg of a sample material is filled in a glass sample plate (0.2 mm depth) in non-destructive condition, and the surface of the sample material is leveled out using a glass plate to obtain a measurement sample. An example of the measurement condition is as follows, which was used in the present invention.
The degree of crystallinity may be calculated by a known analysis method using diffraction patterns of a sample material and sample plate alone (without a sample material) and a difference pattern thereof. For example, using a powder X-ray diffraction pattern analysis software JADE5.0 produced by MDI, which is a commercially available analysis software, a degree of crystallinity may be calculated as follows.
• (1) A difference pattern of the diffraction patterns of a sample material and sample plate alone is smoothed (Savitzky-Goray filter: 19 points). • (2) For a display area of the difference pattern, the x-axis: diffraction angle (2θ) is set between 2 deg and 90 deg, and the y-axis: diffraction intensity (Counts) is set between 0 and 500. • (3) Points are set at diffraction angles of […], 65 and 90 deg, respectively, and a straight line parallel to the x-axis is drawn such that the line is contact with the difference diffraction pattern at a range of 65 deg to 90 deg. The area below the line is determined as a background. • (4) The background is subtracted. • (5) An integrated intensity at a range of 4 deg to 60 deg is calculated (which corresponds to a sum of the integrated intensity of crystalline peaks and an amorphous halo: Sc+Sa) • (6) Points are set at diffraction angles of 2, 7, 18, 26, 30, 35, 59, 65 and 90 deg, respectively. At 2, 65 and 90 deg, the diffraction intensity is set as 0, and at 7, 18, 26, 30, 35 and 59 deg, an approximation by a cubic spline is made such that the approximation formula is in contact with the difference pattern obtained after the subtraction of the background, thereby estimating an amorphous halo. • (7) The amorphous halo is subtracted. • (8) The integrated intensity at a range of 4 deg to 60 deg is calculated (which corresponds to the integrated intensity of the crystalline peaks: Sc). • (9) A degree of crystallinity is calculated according to the following equation. Xc=(Sc/(Sc+Sa))×100 Equation • Xc: Degree of crystallinity (%) • Sc: Integrated intensity of the crystalline peaks • Sa: Integrated intensity of the amorphous halo
For check of the crystalline state and measurement of the degree of crystallinity, powder X-ray diffraction measurement was carried out using a powder X-ray diffraction analyzer (2200/RINT Ultima+PC) manufactured by Rigaku.

[3] = Plasma concentration of drugs when administered to dogs; format: in vivo; settings: oral 10 mg/kg, 3 male beagle dogs
Method: The pharmaceutical active substances with a different particle diameter distribution (Example 2 and Comparative Example 2) were orally administered (10 mg/kg) to 3 male beagle dogs, and blood samples were collected at each time points to measure the drug concentration in plasma.

[4] = Storage stability (2): total amount of related substances by HPLC, 60° C./75% RH opened; format: physicochemical
Method: For comparison of storage stability, the ground pharmaceutical active substance of Comparative Example 4 (grinding for 3 min), Comparative Example 5 (grinding for 6 min) and Comparative Example 6 (grinding for 7 min), all of which were ground with Table Ball Mill (model V-2M: manufactured by Irie Shokai), were left under the storage condition of 60° C./75% RH opened, and the total amount of related substances was analyzed by HPLC 0.5 and 2 months after the start of the storage (Table 7).

Structure (SMILES)	Cumulative Frequency of Volume Distribution Which Is Occupied by Particles with Volume-Based Particle Diameter 15 (μm) or Less [1] [%]	Particle Diameter Distribution D50 [1] [μm]	Particle Diameter Distribution D90 [1] [μm]	Degree of Crystallinity [2] [%]	Drug Plasma Concentration AUC 0-24 h, Average (Standard Deviation) [3]	Drug Plasma Concentration C max, Average (Standard Deviation) [3]	Total Amount of Related Substances ([4]; 60° C./75% RH opened, 0.5-Month Later) [%]	Total Amount of Related Substances ([4]; 60° C./75% RH opened, 2-Month Later) [%]	Total Amount of Related Substances ([4]; At Start of Storage) [%]
O=C1c2ccccc2C(=O)N1[C@@H]1CC[C@@]2(O)[C@H]3Cc4ccc(O)c5c4[C@@]2(CCN3CC2CC2)[C@H]1O5 [Example 2, N-(17-cyclopropylmethyl-4,5α-epoxy-3,14-dihydroxy-morphinan-6β-yl)-phthalimide]	96.3	6.23	12.4	89	180.3 (40.9) ng · hr/mL	18.4 (7.2) ng/mL	–	–	–
O=C1c2ccccc2C(=O)N1[C@@H]1CC[C@@]2(O)[C@H]3Cc4ccc(O)c5c4[C@@]2(CCN3CC2CC2)[C@H]1O5 [Comparative Example 5, N-(17-cyclopropylmethyl-4,5α-epoxy-3,14-dihydroxy-morphinan-6β-yl)-phthalimide]	–	19.2	246	71	–	–	0.61	1.07	0.24
O=C1c2ccccc2C(=O)N1[C@@H]1CC[C@@]2(O)[C@H]3Cc4ccc(O)c5c4[C@@]2(CCN3CC2CC2)[C@H]1O5 [Comparative Example 2, N-(17-Cyclopropylmethyl-4,5α-epoxy-3,14-dihydroxy-morphinan-6β-yl)-phthalimide]	9.4	64.0	173	93	44.5 (25.4) ng · hr/mL	4.8 (1.8) ng/mL	–	–	–
